Experimental data as given in paper PMC2918917 (New journal of chemistry = Nouveau journal de chimie, 2010).
Like-named read-outs stand apart in the source and are kept apart here.

How the values were obtained:
[1] = tested on: cultured mouse mammary cells; conditions: cited from earlier work
[2] = tested on: microRNA-mediated translational repression; conditions: cited from earlier work; for enhancement of microRNA-mediated translational repression: Drosophila melanogaster embryos extract
[3] = tested on: rabbit reticulocyte lysate (RRL) system; conditions: cited from earlier work
cultured cells = conditions: cited from earlier work
human DcpS = target: T1, human DcpS (Homo sapiens, UniProt Q96C86); test: hDcpS assay: enzymatic hydrolysis of cap analogs monitored by RP HPLC; conditions: positive control; cleavage to m^7GMP and GDP; amount of DcpS adjusted
T1 sequence (Q96C86 1-337): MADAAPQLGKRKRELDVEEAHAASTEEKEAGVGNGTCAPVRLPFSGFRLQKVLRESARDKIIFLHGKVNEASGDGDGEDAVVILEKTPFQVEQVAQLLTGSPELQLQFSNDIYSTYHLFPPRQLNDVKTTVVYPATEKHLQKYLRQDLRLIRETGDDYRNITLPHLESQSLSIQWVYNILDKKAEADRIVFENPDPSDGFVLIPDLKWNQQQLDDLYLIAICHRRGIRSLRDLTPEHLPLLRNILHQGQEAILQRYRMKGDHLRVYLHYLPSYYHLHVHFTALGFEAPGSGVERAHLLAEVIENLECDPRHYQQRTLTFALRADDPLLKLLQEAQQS

hDcp2 = hDcp2 (Homo sapiens, UniProt Q8IU60); test: In vitro decapping of capped mRNA by hDcp2; assay type: biochemical; conditions: mRNA capped with D1 plus D2 mixture; preliminary results, unpublished work [21]

CO[C@@H]1[C@H](O)[C@@H](COP(=O)(O)OP(O)(=S)OP(=O)(O)OC[C@H]2O[C@@H](n3cnc4c(=O)[nH]c(N)nc43)[C@H](O)[C@@H]2O)O[C@H]1n1c[n+](C)c2c(=O)[nH]c(N)nc21 (stereo partly drawn) [m2^7,2’-OGppSpG (D2)]
translation efficiency relative to m2^7,2’-OGpppG-capped mRNA [1]: 2.4

C[n+]1cn(C2OC(COP(=O)([O-])OP(=O)(O)OP(=O)(O)OP(=O)(O)OP(=O)(O)OP(=O)(O)OCC3OC(n4cnc5c(=O)[nH]c(N)nc54)C(O)C3O)C(O)C2O)c2nc(N)[nH]c(=O)c21 (stereo not drawn) [m^7Gp6G]
enhancement of microRNA-mediated translational repression [2]: ~ 2 fold | effect on general cap-dependent translation [2]: neutral

COC1C(COP(=O)([O-])OP(=O)(O)OP(=O)(O)OP(=O)(O)OP(=O)(O)OCC2OC(n3cnc4c(=O)[nH]c(N)nc43)C(O)C2O)OC(n2c[n+](C)c3c(=O)[nH]c(N)nc32)C1O (stereo not drawn) [m2^7,3'-OGp5G]
translation efficiency of mRNA capped with pentaphosphate analog [3]: not effective in promoting translation

m2^7,3'-OGppCH2pG
half-life of capped mRNA transfected into cultured cells (cultured cells): prolonged half-life | translation of capped mRNA versus regular ARCA (cultured cells): translated even less efficiently

Cn1c[n+]([C@@H]2O[C@H](COP(=O)(O)OP(=O)([O-])OP(=O)(O)OC[C@H]3O[C@@H](n4cnc5c(=O)[nH]c(N)nc54)[C@H](O)[C@@H]3O)[C@@H](O)[C@H]2O)c2nc(N)[nH]c(=O)c21 [m^7GpppG]
time to complete cleavage by DcpS (human DcpS): less than 15 min

COC1C(O)C(COP(=O)(O)OP(=O)(O)OP(O)(=S)OCC2OC(n3cnc4c(=O)[nH]c(N)nc43)C(O)C2O)OC1n1c[n+](C)c2c(=O)[nH]c(N)nc21 (stereo not drawn) [m2^7,2’-OGpppSG (D2)]
enhancement of microRNA-mediated translational repression [2]: 2 fold | enhancement of microRNA-mediated translational repression ([2]; listed as m2^7,2'-OGpppSG (D2)): ~ 2 fold | effect on general cap-dependent translation [2]: no change | effect on general cap-dependent translation ([2]; listed as m2^7,2'-OGpppSG (D2)): neutral

P1-(7,2'-O-dimethylguanosin-5'-y l ) P4-guanosin-5'-yl (3-thiotetraphosphate) [compound 2]
susceptibility of capped mRNA to in vitro decapping by hDcp2 (hDcp2): resistant
